Measured values published in US7700584B2 (Hangzhou Minsheng Pharmaceuticals Co., Ltd., priority 2004, dated 2010).

What was measured:
[1] = test system: SMMC-7721 human hepatic carcinoma; experiment: In vitro inhibition rate to tumor cells (MTT), SMMC-7721; format: cell-based; conditions: 50 μg/ml
Protocol: (§1) (1) Single cell suspension was seeded into 96-well plates (×3) (the cells was diluted in the PRMI-1640 minimum medium to 3×10^4 cells/ml, […] diluted cells/well). […] The experiments were performed in quadruplicate.
(§2) (2) The medium was removed. Solutions of the anti-tumor agents (15 compounds) were prepared in a freshly prepared medium at the concentrations indicated in the following Table. […] of the solution was added into each well. Incubation was continued for 48 hours.
(§3) (3) […] of 2 mg/ml MTT was added into each well, and incubated for 4 hours.
(§4) (4) The medium was removed from the well. The microplates were swiftly turned down to throw-off the medium. […] DMSO was added into each well, and vortexed at room temperature for 10 minutes.
(§5) (5) OD value (λ=570 nm) was measured with an Enzyme-Linked Detector.
(§6) (6) The inhibition rates (IR) of cell growth were respectively calculated based on the following equation: IR(%)=[1−(average OD of the experimental group/average OD of the control group)]×100%

[2] = test system: LLC mouse Lewis lung carcinoma; experiment: In vitro inhibition rate to tumor cells (MTT), LLC; format: cell-based; conditions: 50 μg/ml
Protocol: as §1, §2, §3, §4, §5, §6

[3] = test system: A-549 human lung adenocarcinoma; experiment: In vitro inhibition rate to tumor cells (MTT), A-549; format: cell-based; conditions: 50 μg/ml
Protocol: as §1, §2, §3, §4, §5, §6

[4] = test system: MCF-7 human mammary adenocarcinoma; experiment: In vitro inhibition rate to tumor cells (MTT), MCF-7; format: cell-based; conditions: 50 μg/ml
Protocol: as §1, §2, §3, §4, §5, §6

[5] = test system: Hela human cervical carcinoma; experiment: In vitro inhibition rate to tumor cells (MTT), Hela; format: cell-based; conditions: 50 μg/ml
Protocol: as §1, §2, §3, §4, §5, §6

[6] = test system: U-937 human histocytic lymphoma; experiment: In vitro inhibition rate to tumor cells (MTT), U-937; format: cell-based; conditions: 50 μg/ml
Protocol: as §1, §2, §3, §4, §5, §6

[7] = test system: HL-60 human promyelocytic leukemia; experiment: In vitro inhibition rate to tumor cells (MTT), HL-60; format: cell-based; conditions: 50 μg/ml
Protocol: as §1, §2, §3, §4, §5, §6

[8] = test system: Bel-7402 human hepatic carcinoma; experiment: In vitro inhibition rate to tumor cells (MTT), Bel-7402; format: cell-based; conditions: 50 μg/ml
Protocol: as §1, §2, §3, §4, §5, §6

[9] = test system: mouse lung cancer Lewis; experiment: Activity against mouse grafted lung cancer Lewis; format: in vivo, Kunming mice; conditions: Lewis, first experiment, 1 mg/kg
Protocol: The experiments were performed according to “Guideline for New Drugs (Western medicines) in Pre-clinical Stages” issued by Bureau of Drug Policy & Administration of the People's Republic of China, and the relevant methods in “Methodology of Pharmaceutical Experiments”, Xu Shuyun et al. ed. 120 male Kunming mice weighting […] were allowed to grow 3 days. No abnormality was observed. The mice were routinely inoculated in oxter with mouse sarcoma S-180, and weighted 4 hrs. after inoculation. The mice were randomly divided into 12 groups, 10 mice/group. Group 1 was given 0.3 ml of physiological saline as negative control; Group 2 was given 5-FU as positive control, 0.6 mg/mouse; Group 3 was given hydroxycamptothecine as positive control, 0.02 mg/mouse. Groups 4, 5 and 6 were injected with 10% Compound 6, 0.4 ml/mouse, 0.2 ml/mouse, and 0.1 ml/mouse, respectively. Groups 7, 8 and 9 were injected with 10% Compound 8, 0.4 ml/mouse, 0.2 ml/mouse, and 0.1 ml/mouse, respectively. Groups 10, 11, and 12 were injected with 10% Compound 20, 0.4 ml/mouse, 0.2 ml/mouse, and 0.1 ml/mouse, respectively. The tested compounds were administered on the next day after inoculation, once a day on alternate days, 6 doses totally administered. On the next day after the end dose, the mice were weighed and sacrificed. After the tumor was excised, body weight and tumor weight were recorded. The tumor inhibition rate was calculated based on the following formula: [(average tumor weight of the control groups−average tumor weight of the experimental groups)/average tumor weight of the control groups]×100%. The data was processed statistically. The above experiments were repeated three times.
The experiments were identical with the experiments for activity against mouse grafted sarcoma S-180, except the following:
(1) the tumor cell line inoculated was mouse lung cancer Lewis;
(2) Compound 6, Compound 8 and Compound 21 were not tested for their activity;
(3) the mice were divided into six groups.

[10] = biological target: T1, HIV-1 proteinase (HIV-1 PR) (Human immunodeficiency virus type 1 group M subtype B, UniProt P04585); experiment: Screening for in vitro activity against HIV-1 proteinase; format: biochemical; conditions: read-out: Inhibition rate, 10 nM
T1 construct: HIV-1 proteinase digests the fluorescent-labeled substrate; purchased
Protocol: Principle of the test: HIV-1 proteinase digests the fluorescent-labeled substrate in an optimal reaction condition and system. The activity of the enzyme can be reflected by the fluorescent intensity in the product of the enzyme reaction. Adding a sample into the reaction system can be used for screening the inhibitor of the enzyme.
1. HIV-1 PR: commercially available, stored at −85° C.
2. Treatment of the samples: Before use, sample was dissolved in DMSO at a suitable concentration, then serially diluted (5×) with double distilled water, five serial dilutions per sample.
3. Positive control: indinavir, purchased from […].
4. Methods: The diluted sample was added into the reaction buffer containing the fluorescent-labeled substrate. Then the genetic engineered target enzyme was added, and incubated in the optimal reaction condition. The fluorescent value was measured with a FLUO star Galaxy luminoscope.

| Structure (SMILES) | inhibition rate, Results (%) SMMC-7721 ([1]; Table 1) [%] | inhibition rate, Results (%) SMMC-7721 ([1]; Table 2 (repeated screening)) [%] | inhibition rate, Results (%) LLC ([2]; Table 1) [%] | inhibition rate, Results (%) LLC ([2]; Table 2 (repeated screening)) [%] | inhibition rate, Results (%) A-549 ([3]; Table 1) [%] | inhibition rate, Results (%) A-549 ([3]; Table 2 (repeated screening)) [%] | inhibition rate, Results (%) MCF-7 ([4]; Table 1) [%] | inhibition rate, Results (%) MCF-7 ([4]; Table 2 (repeated screening)) [%] | inhibition rate, Results (%) Hela ([5]; Table 1) [%] | inhibition rate, Results (%) Hela ([5]; Table 2 (repeated screening)) [%] | inhibition rate, Results (%) U-937 ([6]; Table 1) [%] | inhibition rate, Results (%) U-937 ([6]; Table 2 (repeated screening)) [%] | inhibition rate, Results (%) HL-60 ([7]; Table 1) [%] | inhibition rate, Results (%) HL-60 ([7]; Table 2 (repeated screening)) [%] | inhibition rate, Results (%) Bel-7402 ([8]; Table 1) [%] | inhibition rate, Results (%) Bel-7402 ([8]; Table 2 (repeated screening)) [%] | Average weight (g)-after administration [9] [g] | Inhibition rate (%) [9] [%] | Tumor weight ([9]; X ± SD, n = 10) [g] | inhibition at 0.01 µM [10] [%] |
| --- | --- | --- | --- | --- | --- | --- | --- | --- | --- | --- | --- | --- | --- | --- | --- | --- | --- | --- | --- | --- |
| CCCCNC1(C)CC2(OC)OC3(CC2C(C)C)C(C)CCC13.Cl (stereo not drawn) [Compound 46, Curcumol methyl ether n-butyl amine hydrochloride without double bond] | −0.86 | −0.45 | −12.99 | −17.56 | 3.12 | 3.78 | 19.88 | 14.98 | 53.12 | 49.56 | 16.32 | 8.65 | −2.60 | −4.56 | 4.55 | 4.65 |  |  |  |  |
| CC(=O)OC12CC(=O)C3CCC(C)C3(CC1C(C)C)O2 (stereo not drawn) [Compound 49, Curzerenone acetate] | −11.3 | −1.78 | −0.15 | 0.12 | 5.36 | 4.23 | 0.65 | 1.56 | 79.8 | 75.65 | 78.65 | 75.23 | 55.35 | 57.89 | 2.69 | 14.02 |  |  |  |  |
| CC[C@@]1(O)C(=O)OCc2c1cc1n(c2=O)Cc2cc3cc(O)ccc3nc2-1 [Hydioxycamptothecine] |  |  |  |  |  |  |  |  |  |  |  |  |  |  |  |  | 21.0 | 49.7 | 1.50 ± 0.28 |  |
| CC(C)(C)NC(=O)[C@@H]1CN(Cc2cccnc2)CCN1C[C@@H](O)C[C@@H](Cc1ccccc1)C(=O)N[C@H]1c2ccccc2C[C@H]1O [indinavir] |  |  |  |  |  |  |  |  |  |  |  |  |  |  |  |  |  |  |  | 92.1 |
